Read-outs that look alike come from different tables or passages of the source.
Experiments:
[1] = changing rate of blood pressure and heart rate by intravenous injection in anesthetized rats; type: in vivo, Wister male rats; conditions: Rattus norvegicus, 1 (mg/kg)
Procedure: (blood pressure, heart rate increasing action by intravenous injection) Wister male rats (8 weeks old) were used as test animals. The rats were applied to anesthesia by intraperitoneal administration with 1.25 g/kg of urethane. The blood pressure was determined by inserting a polyethylene tube into a femoral artery, which was connected with a pressure transducer. The heart rate was determined from R wave of electrocardiograms (ECG) induced by standard limb lead II with a tachometer. Each test compound was dissolved in ethanol and intravenously administered to rats in 1 mg/kg diluted with Ringer's solution just before use. The maximum concentration of ethanol was 2 percent. An ethanol-containing Ringer without any test compound was used as a control to confirm the influence of the ethanol in each experiment. Each changing rate (%) in the blood pressure and heart rate before and after administration was determined, and the average of 3-4 experiments was shown in Table 1. Changing rates of blood pressure and heart rate were determined in the same manner as described in Example 1 except that the test compounds 60, 61 and 62 were used in different concentrations instead of the test compounds 1-55.

acute toxicity LD50 = type: in vivo
[2] = progressing a breath (change rate of breath rate); type: in vivo, Wister male rats; conditions: Rattus norvegicus, iv, tail vein, rats
Procedure: Wister male rats (8 weeks old) were applied to anesthesia by intraperitoneal administration with 1.25 g/kg of urethane. A pick-up for breath was fixed on a top of a rat's nose, and the breath curve was recorded on a polygraph while the breath rate was counted with a tachometer.
Each test compound was dissolved in ethanol and administered to rats through a tale vein in 1 mg/kg as diluted with Ringer's solution just before use. The maximum concentration of ethanol was 2 percent. Ringers solution containing ethanol but not containing test compound was administered at every experiment as a control. The change rates (%) of the breath rate before and after administration were determined, and evaluated as progressing activity of breath.

[3] = recovery of blood pressure and heart rate of rats in hemorrhage shock; type: in vivo, Wister male rats; conditions: intravenous, dehematized rats
Procedure: (Recovery of blood pressure and heart rate of rats in hemorrhage shock)
Wister male rats (8 weeks old) were applied to anesthesia by subcutaneous injection with 1.5 g/kg of urethane. The blood pressure and heart rate were determined according to the same manner as in Example 1.
The rats were kept for 60 minutes in a room after a blood corresponding to 1.5% of the weight was removed.
13,14-dihydro-6,15-diketo-19-methyl-PGE1 ethyl ester (compound number 15) was dissolved in Ringer's solution (0.1 ml), and the solution was intravenously administered into the above dehematized rat. Ringer's solution was administered to a control group.
The recovery rates of the blood pressure and heart rate were obtained assuming the value at 60 minutes after dehematizing being 0% and the value before dehematizing being 100% respectively. In these FIGS. (1), (2) and (3) represent a dose of 1 mg/kg, dose of 0.5 mg/kg and control respectively.
The same procedure as the above except that the compounds of (7), (18) and (22) were used instead of the compound (15) was applied, and the effects are observed, the results of which are also shown in Table 3.

[4] = changes in blood flow rate in carotid, blood pressure and heart rate; type: in vivo, Wister male rats; conditions: 1 mg/kg, femoral artery, 4 experiments
Procedure: Wister male rats (9 weeks old) were used.
The rats were applied to anesthesia by intraperitoneal administration with 1.25 g/kg of urethane. The blood flow rate in carotid was determined by a stromuhr. The blood pressure and heart rate were determined according to the same manner as in Example 1.
13,14-dihydro-6,15-diketo-19-methyl-PGE1 ethyl ester (sample number: 15) was dissolved in a small amount of ethanol, and then diluted with Ringer's solution more than 50 times. About 0.1 ml (1 mg drag/kg rat) of the diluted solution was administered to a rat through a polyethylene tube inserted into a femoral artery. The changes in blood flow rate (BF), blood pressure (BP), heart rate (HR) were observed, and the average of 4 experiments were shown in FIG. 1.

[5] = Table 1, read-out: changing rate of blood pressure
[6] = Table 1, read-out: changing rate of heart rate
[7] = mouse, in vivo, PO, male mice, read-out: LD50
[8] = mouse, in vivo, IP, male mice, read-out: LD50
[9] = mouse, in vivo, IV, male mice, read-out: LD50

## CCCCC(F)C(=O)CC[C@H]1[C@H](O)CC(=O)[C@@H]1C/C=C\CCCC(=O)OC (stereo partly drawn) [Compound 37, 13,14-dihydro-15-keto-16R,S-fluoro-PGE2 methyl ester]
[1]; [5]
  change in vivo at 1 mg/kg: 56%
[1]; [6]
  change in vivo at 1 mg/kg: 33%
Acute toxicity LD50; [7]
  LD50: > 500 mg/kg

## CCCCC(F)C(=O)CC[C@H]1[C@H](O)CC(=O)[C@@H]1C/C=C\CCCC(=O)O (stereo partly drawn) [Compound 36, 13,14-dihydro-15-keto-16R,S-fluoro-PGE2]
[1]; [5]
  change in vivo at 1 mg/kg: 33%
[1]; [6]
  change in vivo at 1 mg/kg: 32%
Acute toxicity LD50; [7]
  LD50: > 500 mg/kg

## CCCCCC(=O)CC[C@H]1[C@H](O)CC(=O)[C@@H]1CC(=O)CCCCC(=O)OCC [Compound 7, 13,14-dihydro-6,15-diketo-PGE1 ethyl ester]
[1]; [5]
  change in vivo at 1 mg/kg: 5%
[2]
  change in vivo at 1 mg/kg: 31%
[3]; 0.5 mg/kg
  recovering of blood pressure %: 38%
  recovering of heart rate %: 46%
[3]; 1.0 mg/kg
  recovering of blood pressure %: 63%
  recovering of heart rate %: 62%

## CCCCCC(=O)CC[C@H]1[C@H](O)CC(=O)[C@@H]1C/C=C\CCCC(=O)OCC [Compound 22, 13,14-dihydro-15-keto-PGE2 ethyl ester]
[1]; [5]
  change in vivo at 1 mg/kg: 5%
[1]; [6]
  change in vivo at 1 mg/kg: 11%
Acute toxicity LD50; IP, female mice
  LD50: > 500 mg/kg
Acute toxicity LD50; PO, female mice
  LD50: > 4000 mg/kg
Acute toxicity LD50; SC, female mice
  LD50: > 1000 mg/kg
Acute toxicity LD50; [8]
  LD50: > 500 mg/kg
Acute toxicity LD50; [7]
  LD50: > 4000 mg/kg
Acute toxicity LD50; mouse, in vivo, SC, male mice, read-out: LD50
  LD50: > 1000 mg/kg
[2]
  change in vivo at 1 mg/kg: 28%
[3]; 0.5 mg/kg
  recovering of blood pressure %: 32%
  recovering of heart rate %: 50%
[3]; 1.0 mg/kg
  recovering of blood pressure %: 74%
  recovering of heart rate %: 63%

## CCOC(=O)CCCCC(=O)C[C@H]1C(=O)C[C@@H](O)[C@@H]1CCC(=O)CCCC(C)C [Compound 15, 13,14-dihydro-6,15-diketo-19-methyl-PGE1 ethyl ester]
[4]; FIG. 1a
  change in blood flow rate (BF) in carotid: extremely increase
[4]; FIG. 1b
  change in blood pressure (BP): extremely increase
[4]; FIG. 1c
  change in heart rate (HR): extremely increase
[1]; [5]
  change in vivo at 1 mg/kg: 12%
[1]; [6]
  change in vivo at 1 mg/kg: 19%
Acute toxicity LD50; [9]
  LD50: > 300 mg/kg
[2]
  change in vivo at 1 mg/kg: 26%
[3]; 0.5 mg/kg
  recovering of blood pressure %: 39%
  recovering of heart rate %: 62%
[3]; 1.0 mg/kg
  recovering of blood pressure %: 68%
  recovering of heart rate %: 100%

## CCCCCC(=O)CC[C@H]1[C@H](O)CC(=O)[C@@H]1C/C=C\CCCC(=O)OC [Compound 21, 13,14-dihydro-15-keto-PGE2 methyl ester]
[1]; [5]
  change in vivo at 1 mg/kg: 18%
[1]; [6]
  change in vivo at 1 mg/kg: 35%
Acute toxicity LD50; [9]
  LD50: > 1000 mg/kg
[2]
  change in vivo at 1 mg/kg: 29%

## CCCCCC(=O)CC[C@H]1[C@H](C)CC(=O)[C@@H]1CC(=O)CCCCC(=O)OCC [Compound 18, 13,14-dihydro-6,15-diketo-11-dehydroxy-11R-methyl-PGE1 ethyl ester]
[1]; [5]
  change in vivo at 1 mg/kg: 18%
[1]; [6]
  change in vivo at 1 mg/kg: 17%
[2]
  change in vivo at 1 mg/kg: 28%
[3]; 0.5 mg/kg
  recovering of blood pressure %: 87%
  recovering of heart rate %: 100%
[3]; 1.0 mg/kg
  recovering of blood pressure %: 119%
  recovering of heart rate %: 100%

## CCCCCC(=O)CC[C@H]1[C@H](O)CC(=O)[C@@H]1CCCCCCC(=O)OCC [Compound 2, 13,14-dihydro-15-keto-PGE1 ethyl ester]
[1]; [5]
  change in vivo at 1 mg/kg: 1%
[1]; [6]
  change in vivo at 1 mg/kg: 20%
Acute toxicity LD50; [8]
  LD50: > 1000 mg/kg
[2]
  change in vivo at 1 mg/kg: 47%
